Experiments:
Assay in all cases: Enzymatic assay with human recombinant ALDH (NADH fluorescence), IC50
Format in all cases: biochemical
Conditions in all cases: substrate Hexanal, NAD+, 37° C.
[1] = molecular target: T1, Human recombinant ALDH2 (Homo sapiens, UniProt P05091)
T1 construct: purchased Creative BioMart, NY, USA
T1 sequence (P05091 18-517): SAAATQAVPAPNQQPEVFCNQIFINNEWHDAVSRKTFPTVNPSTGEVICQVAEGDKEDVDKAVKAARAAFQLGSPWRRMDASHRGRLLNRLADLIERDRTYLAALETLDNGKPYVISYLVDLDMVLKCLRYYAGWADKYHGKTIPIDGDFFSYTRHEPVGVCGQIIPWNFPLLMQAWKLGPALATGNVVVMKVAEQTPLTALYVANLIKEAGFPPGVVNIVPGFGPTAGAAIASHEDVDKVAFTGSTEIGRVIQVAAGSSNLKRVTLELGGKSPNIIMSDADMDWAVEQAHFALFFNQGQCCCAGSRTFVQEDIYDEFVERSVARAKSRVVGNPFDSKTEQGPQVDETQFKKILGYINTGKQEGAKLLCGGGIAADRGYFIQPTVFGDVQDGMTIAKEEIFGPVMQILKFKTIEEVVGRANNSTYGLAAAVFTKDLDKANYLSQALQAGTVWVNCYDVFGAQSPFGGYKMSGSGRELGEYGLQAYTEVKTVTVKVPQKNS
Method: (§1) Human recombinant ALDH1A1, ALDH1 A2, ALDH1A3, ALDH2 (Creative BioMart, NY, USA) were prepared at 1 mg/mL. The enzymatic reactions were performed using saturating concentrations of substrate. To test the enzymatic activity of the enzymes, 10 μL of enzyme was added into a reaction buffer containing 50 mM HEPES pH 7.2, 30 mM MgCl2, plus 20 mM NAD^+ cofactor and 2 mM Hexanal (Sigma-Aldrich, St. Louis, Mo., USA) in the presence or absence of the different tested compounds. Internal standards were prepared with Nicotinamide adenine dinucleotide reduce form (NADH, 500 μM, Sigma-Aldrich) in Reaction Buffer (50 mM HEPES pH 7.2, 30 mM MgCl2).
(§2) Time-dependent inhibition assays were performed for 0-2-5-10-15-20-30-45-60 min at 37° C. in 1 mL-quartz cuvette. The formation of NADH was monitored, reading samples at excitation wavelength=340 nm/emission wavelength=460 nm (fluorescence) for at least 600 sec using Cary Eclipse Varian fluorimeter.
(§3) Negative control consisted in the same reactions except that enzyme was not added (enzyme blank). To determine the slope for enzyme blank and calculate product concentration (Unit of fluorescence) the following formulae was used: […]
(§4) where Cst is the standard NADH concentration, Fst is the standard fluorescence and dF/dt is the slope of the time dependent fluorescence (S. Sotobodowska et al, 2012). The specific activity of the enzymes (μmol/min·mg-U/mg) in the absence of presence of inhibitors was calculated as follows: […]

[2] = molecular target: T2, Human recombinant ALDH1A1 (Homo sapiens, UniProt P00352)
T2 construct: purchased Creative BioMart, NY, USA
T2 sequence (P00352 1-501): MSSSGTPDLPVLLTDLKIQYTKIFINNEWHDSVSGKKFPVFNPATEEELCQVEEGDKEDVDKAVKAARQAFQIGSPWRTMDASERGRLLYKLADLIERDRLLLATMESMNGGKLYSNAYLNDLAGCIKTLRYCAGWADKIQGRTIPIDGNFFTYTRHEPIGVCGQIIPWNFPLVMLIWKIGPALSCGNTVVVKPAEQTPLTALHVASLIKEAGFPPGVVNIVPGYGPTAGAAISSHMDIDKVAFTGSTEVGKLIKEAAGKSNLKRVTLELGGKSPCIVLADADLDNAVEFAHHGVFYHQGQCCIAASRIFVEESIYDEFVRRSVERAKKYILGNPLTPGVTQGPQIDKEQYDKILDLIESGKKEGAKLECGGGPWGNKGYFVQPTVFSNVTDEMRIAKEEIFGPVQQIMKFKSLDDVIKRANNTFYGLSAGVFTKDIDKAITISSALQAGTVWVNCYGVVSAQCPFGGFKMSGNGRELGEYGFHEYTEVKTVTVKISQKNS
Method: as §1, §2, §3, §4

[3] = molecular target: T3, Human recombinant ALDH1A2 (Homo sapiens, UniProt O94788)
T3 construct: purchased Creative BioMart, NY, USA
T3 sequence (O94788 1-518): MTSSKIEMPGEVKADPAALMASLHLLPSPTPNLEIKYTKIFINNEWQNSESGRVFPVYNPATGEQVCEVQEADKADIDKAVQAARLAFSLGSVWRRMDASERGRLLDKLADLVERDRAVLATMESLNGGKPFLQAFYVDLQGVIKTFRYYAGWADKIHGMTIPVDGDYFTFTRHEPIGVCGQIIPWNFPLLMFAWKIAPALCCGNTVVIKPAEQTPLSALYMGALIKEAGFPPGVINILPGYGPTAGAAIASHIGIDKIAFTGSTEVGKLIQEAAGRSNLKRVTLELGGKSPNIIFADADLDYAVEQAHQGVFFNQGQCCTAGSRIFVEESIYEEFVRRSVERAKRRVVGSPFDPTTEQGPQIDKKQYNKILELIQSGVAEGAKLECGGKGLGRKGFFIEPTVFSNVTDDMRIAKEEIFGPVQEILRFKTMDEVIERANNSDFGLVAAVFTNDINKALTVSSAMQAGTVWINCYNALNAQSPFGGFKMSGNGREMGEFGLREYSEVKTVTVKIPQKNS
Method: as §1, §2, §3, §4

[4] = molecular target: T4, Human recombinant ALDH1A3 (Homo sapiens, UniProt P47895)
T4 construct: purchased Creative BioMart, NY, USA
T4 sequence (P47895 1-512): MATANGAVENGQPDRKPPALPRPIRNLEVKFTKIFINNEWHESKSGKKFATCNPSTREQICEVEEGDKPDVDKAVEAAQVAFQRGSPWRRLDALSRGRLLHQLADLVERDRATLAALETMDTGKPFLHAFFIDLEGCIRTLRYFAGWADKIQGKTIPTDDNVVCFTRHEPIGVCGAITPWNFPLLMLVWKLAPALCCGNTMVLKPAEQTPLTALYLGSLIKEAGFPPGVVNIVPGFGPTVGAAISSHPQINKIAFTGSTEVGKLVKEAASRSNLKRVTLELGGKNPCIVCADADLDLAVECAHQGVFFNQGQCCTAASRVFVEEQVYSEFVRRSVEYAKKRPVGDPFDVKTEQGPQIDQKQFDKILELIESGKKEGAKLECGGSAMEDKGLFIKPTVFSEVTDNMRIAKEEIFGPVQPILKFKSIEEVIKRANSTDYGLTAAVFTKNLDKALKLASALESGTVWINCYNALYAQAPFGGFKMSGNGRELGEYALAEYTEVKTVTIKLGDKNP
Method: as §1, §2, §3, §4

Row | SMILES | IC50 [1] | IC50 [2] | IC50 [3] | IC50 [4]
1 | CSC(=O)C#CC(C)(C)N(C)C [DIMATE, S-methyl 4-(dimethylamino)-4-methylpent-2-ynethioate, reference compound] | 72 ± 9 µM | 37 ± 5 µM | 18 ± 4 µM | 20 ± 2 µM
2 | CSC(=O)C#CC(C)(C)N(C)CCOCc1ccccc1 [Example 3, S-methyl 4-[2-benzyloxyethyl(methyl)amino]-4-methyl-pent-2-ynethioate] | 3.1 ± 0.8 µM | 3.8 ± 1.1 µM | 0.568 ± 0.09 µM | 3.4 ± 0.1 µM
3 | CSC(=O)C#CC(C)(C)N(C)CCOCc1ccc(C)c(C)c1 [Example 5, S-methyl 4-[2-[(3,4-dimethylphenyl)methoxy]ethyl-methyl-amino]-4-methyl-pent-2-ynethioate] | 12 ± 3 µM | 4.3 ± 0.4 µM | 1.3 ± 0.2 µM | 4.8 ± 0.1 µM

From US20220265845A1, “AMINOTHIOLESTER COMPOUNDS AND USES THEREOF” (ADVANCED BIODESIGN, priority 2019, published 2022)
